From patent EP1053246B1, “BETA-SHEET MIMETICS AND METHODS RELATING TO THE USE THEREOF” (MOLECUMETICS, LTD., priority 1998, dated 1999)
Read-outs that look alike come from different tables or passages of the source. Blank lines part the entries; values can stand above or below the compound they belong to.

Legend:
[1] = biological target: T1, human Factor VIIa (FVIIa) (Homo sapiens, UniProt P08709); experiment: Factor VII assay: hydrolysis of the mimetic as proteolytic substrate; format: biochemical; conditions: relative to (D)FPR-PNA control
T1 construct: human Factor VIIa (FVIIa)
T1 sequence (P13726 33-295 partner, one chain of several): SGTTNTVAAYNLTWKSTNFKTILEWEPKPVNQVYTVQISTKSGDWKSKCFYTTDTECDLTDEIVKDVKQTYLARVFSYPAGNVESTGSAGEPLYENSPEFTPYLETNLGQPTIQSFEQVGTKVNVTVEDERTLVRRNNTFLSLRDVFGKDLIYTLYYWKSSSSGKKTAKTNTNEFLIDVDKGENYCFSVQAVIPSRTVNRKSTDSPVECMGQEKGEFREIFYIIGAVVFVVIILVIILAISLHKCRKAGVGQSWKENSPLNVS
Protocol: (§1) Both the thrombin and Factor VII assays of this experiment were carried out at 37°C using a Hitachi UV/Vis spectrophotometer (model U-3000). Structure (11b) was dissolved in deionized water. The concentration was determined from the absorbance at 342 nm. […] Initial velocities were calculated from the initial linear portion of the reaction progress curve. Kinetic parameters were determined by unweighted nonlinear least-squares fitting of the simple Michaelis-Menten equation to the experimental data using GraFit (Version 3.0, Erithacus Software Limited).
For the Factor VII assay, pH 8.0 Tris buffer (0.05 M Tris, 5 mM CaCl2, 0.15 M NaCl, 0.1% TWEEN 20, 0.1% BSA) was used. 10 µl of 20 µM human Factor VIIa (FVIIa) and 22 µM of human tissue factor (TF) was brought to assay buffer to make 160 nM FVIIa and TF solutions, respectively. […] The initial 3 minutes reaction progress curves were recorded. […] The kcat/KM was calculated from the slope and found to be 17,500 M^-1s^-1.
(§2) In both the thrombin and Factor VII assay of this experiment, (D)FPR-PNA was run as a control.

[2] = biological target: T2, bovine thrombin (Bos taurus, UniProt P00735); experiment: thrombin assay: hydrolysis of the mimetic as proteolytic substrate; format: biochemical
T2 construct: bovine thrombin (from Sigma); purchased Sigma
Protocol: as §1
For the thrombin assay, experiments were performed in pH 8.4 Tris buffer (Tris, 0.05M; NaCl, 0.15M). 6.4 NIH units of bovine thrombin (from Sigma) were dissolved into 10 ml of the assay buffer to yield 10 nM thrombin solution. […] The first two minutes of the reactions were recorded for initial velocity determination.
as §2

[3] = test system: control plasma; experiment: prothrombin time (PT) in control plasma; format: biochemical
Protocol: Then 200 µl of prewarmed (at 37°C for ∼10 minutes) thromboplastin with calcium (from Sigma) was rapidly added into the plasma sample. […]

[4] = biological target: T3, bovine factor Xa (Bos taurus, UniProt P00743); experiment: Factor X inhibition assay (IC50, Example 4); format: biochemical; conditions: Factor X; read-out: IC50
T3 construct: bovine factor Xa (from Sigma); purchased Sigma
T3 sequence (P00743 41-180 limits assumed): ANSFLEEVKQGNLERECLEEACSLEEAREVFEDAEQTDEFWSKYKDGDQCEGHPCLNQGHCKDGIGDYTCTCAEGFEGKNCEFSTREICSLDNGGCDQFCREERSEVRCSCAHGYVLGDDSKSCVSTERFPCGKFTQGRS
T3 sequence (P00743 234-492 limits assumed): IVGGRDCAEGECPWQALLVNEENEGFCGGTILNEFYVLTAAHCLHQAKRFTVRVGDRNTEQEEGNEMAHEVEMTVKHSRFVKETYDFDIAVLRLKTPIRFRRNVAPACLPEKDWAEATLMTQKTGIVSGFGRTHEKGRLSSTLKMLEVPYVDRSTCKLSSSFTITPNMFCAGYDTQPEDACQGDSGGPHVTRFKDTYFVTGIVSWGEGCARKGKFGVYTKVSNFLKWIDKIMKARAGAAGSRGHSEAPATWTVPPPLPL
Protocol: All inhibition assays of this experiment were performed at room temperature in 96 well microplates using a Bio-Rad microplate reader (Model 3550). […] This solution (2.05 mM) served as the stock solution for all the inhibition assays. The hydrolysis of chromogenic substrates was monitored at 405 nm. The reaction progress curves were recorded by reading the plates typically 90 times with 30 seconds to 2 minute intervals. The initial rate were determined by unweighted nonlinear least-squares fitting to a first order reaction in GraFit.
In the Factor X assay, buffer and substrate are the same as used for thrombin assay. A 1:100 dilution was made into pH 8.4 Tris buffer to serve as the first point. Seven dilutions with a dilution factor of 2 were made. The assay protocol is the same as for thrombin except 25 nM of bovine factor Xa (from Sigma) in pH 8.4 Tris buffer was used instead of thrombin.

[5] = test system: tryptase; experiment: tryptase inhibition assay (Ki, Example 5); format: biochemical, human lung
Protocol: (§3) The reaction progress curves were recorded by reading the plates, typically 60 times with 30 second to 2 minute intervals. Initial rates were determined by unweighted nonlinear least-squares fitting to a first order reaction in GraFit (Erithacus Software Limited, London, England).
Tryptase: 0.1 M tris, 0.2 M NaCl, 0.1 mg/ml heparin, pH=8.0 was utilized as buffer. […] From this point seven more dilutions were made for the assay.

[6] = test system: Factor X; experiment: Factor X inhibition assay (Ki), source of enzyme not stated; format: biochemical; conditions: ratio of Ki of an enzyme to the Ki of thrombin
[7] = test system: thioredoxin; experiment: block of insulin disulfide reduction by thioredoxin (turbidity at 650 nm); format: biochemical; conditions: 8 µM thioredoxin, 0-100 µM compound, 60 minutes
[8] = biological target: T4, factor VII (Homo sapiens, UniProt P08709); experiment: Factor VII inhibition assay (Ki, Example 5); format: biochemical
T4 construct: human Factor VIIa (FVIIa)
T4 sequence (P08709 61-212 limits assumed): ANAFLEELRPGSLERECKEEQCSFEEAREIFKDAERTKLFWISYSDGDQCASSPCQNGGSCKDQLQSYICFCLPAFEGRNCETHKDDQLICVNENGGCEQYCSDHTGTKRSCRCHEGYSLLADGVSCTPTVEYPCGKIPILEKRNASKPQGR
T4 sequence (P08709 213-466 limits assumed): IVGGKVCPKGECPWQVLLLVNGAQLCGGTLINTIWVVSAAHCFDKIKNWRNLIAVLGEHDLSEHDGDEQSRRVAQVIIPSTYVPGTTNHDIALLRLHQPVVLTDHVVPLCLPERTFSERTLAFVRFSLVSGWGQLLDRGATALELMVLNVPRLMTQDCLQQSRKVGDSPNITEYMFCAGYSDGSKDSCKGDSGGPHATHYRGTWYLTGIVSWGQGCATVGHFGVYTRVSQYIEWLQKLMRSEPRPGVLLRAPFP
Protocol: as §3
From this concentration point seven more sequential dilutions were made for the assay.

[9] = biological target: T5, trypsin (Bos taurus, UniProt P00760); experiment: trypsin inhibition assay (Ki, Example 5); format: biochemical, bovine pancreas
T5 construct: from tissue; host or cells: bovine pancreas
T5 sequence (P00760 24-246): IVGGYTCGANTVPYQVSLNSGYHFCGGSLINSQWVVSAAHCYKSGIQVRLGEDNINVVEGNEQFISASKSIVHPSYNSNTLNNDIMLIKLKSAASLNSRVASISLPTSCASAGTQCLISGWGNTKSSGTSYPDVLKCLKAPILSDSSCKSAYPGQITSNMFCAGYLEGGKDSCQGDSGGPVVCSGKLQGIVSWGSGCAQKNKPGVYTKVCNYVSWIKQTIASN
Protocol: as §3

[10] = biological target: T6, factor X (Bos taurus, UniProt P00743); experiment: Factor X inhibition assay (Ki, Example 5), bovine plasma enzyme; format: biochemical; conditions: footnote e: bovine plasma
T6 construct: bovine factor Xa (from Sigma); from tissue; host or cells: bovine plasma
T6 sequence (P00743 41-180 limits assumed): as the sequence (P00743 41-180 limits assumed) above
T6 sequence (P00743 234-492 limits assumed): as the sequence (P00743 234-492 limits assumed) above
Protocol: All inhibition assays were performed at room temperature in 96 well microplates using Bio-Rad microplate reader (Model 3550). […] The hydrolysis of chromogenic substrates was monitored at 405 nm. The reaction progress curves were recorded by reading the plates, typically 60 times with 30 second to 2 minute intervals. Initial rates were determined by unweighted nonlinear least-squares fitting to a first order reaction in GraFit (Erithacus Software Limited, London, England).
Factor X: Buffer and substrate were the same as used for thrombin assay. A 1:100 dilution was made -in the pH8.0 tris buffer to serve as the first point. Seven more dilutions from the first were made for the assay.

[11] = biological target: thrombin (Bos taurus, UniProt P00735); experiment: thrombin inhibition assay (Ki, Example 5); format: biochemical, bovine plasma; set-up: Thrombin: N-p-tosyl-Gly-Pro-Arg-pNA (from Sigma) was used at 0.5 mM concentration; from tissue; host or cells: bovine plasma
Protocol: as §3
Seven sequential dilutions were made from the first point for the assay.

[12] = biological target: Factor XI (Homo sapiens, UniProt P03951); experiment: Factor XI inhibition assay (Ki); format: biochemical
Chain of Factor XI (P03951 388-625 limits assumed): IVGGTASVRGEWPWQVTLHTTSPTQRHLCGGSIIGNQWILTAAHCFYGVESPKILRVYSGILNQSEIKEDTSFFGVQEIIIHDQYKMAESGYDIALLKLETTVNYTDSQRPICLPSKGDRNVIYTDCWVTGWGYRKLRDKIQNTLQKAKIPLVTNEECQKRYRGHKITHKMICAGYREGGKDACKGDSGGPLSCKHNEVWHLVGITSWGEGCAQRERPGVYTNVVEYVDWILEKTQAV
Chain of Factor XI (P03951 19-387 limits assumed): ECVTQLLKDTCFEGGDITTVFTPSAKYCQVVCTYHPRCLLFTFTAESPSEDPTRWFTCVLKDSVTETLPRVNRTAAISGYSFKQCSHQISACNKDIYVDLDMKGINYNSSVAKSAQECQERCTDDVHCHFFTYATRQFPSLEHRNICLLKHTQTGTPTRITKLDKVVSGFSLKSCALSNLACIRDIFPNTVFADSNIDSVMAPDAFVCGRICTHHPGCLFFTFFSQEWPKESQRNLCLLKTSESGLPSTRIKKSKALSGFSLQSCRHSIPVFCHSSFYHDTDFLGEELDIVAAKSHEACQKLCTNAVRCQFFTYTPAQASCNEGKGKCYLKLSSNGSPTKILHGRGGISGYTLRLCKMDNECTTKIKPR

[13] = biological target: thrombin-thrombomodulin complex (Bos taurus, UniProt P00735); experiment: thrombin-thrombomodulin complex inhibition assay (Ki); format: biochemical; conditions: thrombin preincubated with 4 nM thrombomodulin, read-out: Ki (M) T.T.C.
[14] = biological target: T7, APC (Homo sapiens, UniProt P04070); experiment: activated protein C inhibition assay (Ki, Example 5); format: biochemical, human plasma
T7 construct: from tissue; host or cells: human plasma
T7 sequence (P04070 43-197 limits assumed): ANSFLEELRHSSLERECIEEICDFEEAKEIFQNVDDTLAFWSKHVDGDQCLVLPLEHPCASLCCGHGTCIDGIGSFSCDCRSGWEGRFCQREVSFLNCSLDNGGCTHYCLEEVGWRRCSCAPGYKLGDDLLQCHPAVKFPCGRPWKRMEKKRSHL
T7 sequence (P04070 212-461 limits assumed): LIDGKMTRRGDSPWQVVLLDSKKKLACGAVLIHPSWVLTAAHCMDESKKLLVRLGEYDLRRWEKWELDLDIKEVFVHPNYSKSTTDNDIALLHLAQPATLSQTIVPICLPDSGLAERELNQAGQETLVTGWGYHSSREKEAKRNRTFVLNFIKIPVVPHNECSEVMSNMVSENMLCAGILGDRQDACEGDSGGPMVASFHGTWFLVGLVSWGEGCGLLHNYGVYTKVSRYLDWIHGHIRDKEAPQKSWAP

[15] = biological target: t-PA (Homo sapiens, UniProt P00750); experiment: t-PA inhibition assay (Ki, Example 5); format: biochemical
Chain of t-PA (P00750 36-562): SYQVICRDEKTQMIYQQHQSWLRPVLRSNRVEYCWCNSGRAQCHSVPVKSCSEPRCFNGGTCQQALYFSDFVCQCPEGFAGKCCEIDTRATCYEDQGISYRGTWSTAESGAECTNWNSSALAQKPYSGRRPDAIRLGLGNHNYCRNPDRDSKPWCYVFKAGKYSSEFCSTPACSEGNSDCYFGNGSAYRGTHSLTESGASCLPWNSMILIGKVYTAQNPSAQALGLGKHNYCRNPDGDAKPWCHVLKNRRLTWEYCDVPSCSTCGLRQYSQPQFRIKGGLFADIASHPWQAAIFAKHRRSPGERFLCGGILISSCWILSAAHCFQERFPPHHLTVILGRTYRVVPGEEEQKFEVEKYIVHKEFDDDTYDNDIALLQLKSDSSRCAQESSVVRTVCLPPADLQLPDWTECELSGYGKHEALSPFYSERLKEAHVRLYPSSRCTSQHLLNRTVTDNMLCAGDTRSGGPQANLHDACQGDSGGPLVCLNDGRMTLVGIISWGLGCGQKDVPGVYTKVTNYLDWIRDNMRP
Protocol: as §3

[16] = biological target: Plasmin (Bos taurus, UniProt P06868); experiment: plasmin inhibition assay (Ki, Example 5); format: biochemical, bovine plasma; set-up: Plasmin: Buffer (see thrombin assay); from tissue; host or cells: bovine plasma
Chain of Plasmin (P06868 104-583 limits assumed): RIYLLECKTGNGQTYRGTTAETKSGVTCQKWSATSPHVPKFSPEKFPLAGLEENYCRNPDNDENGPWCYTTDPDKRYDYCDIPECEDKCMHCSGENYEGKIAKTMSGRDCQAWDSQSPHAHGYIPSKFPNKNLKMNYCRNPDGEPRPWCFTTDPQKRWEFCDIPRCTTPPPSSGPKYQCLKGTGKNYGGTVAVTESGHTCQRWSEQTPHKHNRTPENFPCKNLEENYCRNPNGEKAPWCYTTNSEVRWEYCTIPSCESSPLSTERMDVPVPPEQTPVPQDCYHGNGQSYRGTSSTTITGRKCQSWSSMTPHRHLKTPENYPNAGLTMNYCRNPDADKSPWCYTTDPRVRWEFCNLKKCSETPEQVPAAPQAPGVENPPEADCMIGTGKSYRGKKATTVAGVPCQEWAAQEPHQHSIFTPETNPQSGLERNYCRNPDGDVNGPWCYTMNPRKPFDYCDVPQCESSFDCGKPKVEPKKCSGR
Chain of Plasmin (P06868 584-812 limits assumed): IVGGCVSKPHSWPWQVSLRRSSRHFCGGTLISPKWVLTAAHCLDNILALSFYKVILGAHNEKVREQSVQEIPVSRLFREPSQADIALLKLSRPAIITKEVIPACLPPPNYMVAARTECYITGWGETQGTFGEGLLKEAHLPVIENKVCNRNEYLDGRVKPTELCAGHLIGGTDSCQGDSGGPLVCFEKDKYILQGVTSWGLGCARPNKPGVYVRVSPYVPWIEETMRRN
Protocol: as §3

[17] = biological target: papain (Carica papaya, UniProt P00784); experiment: papain inhibition assay
Chain of papain (P00784 134-345): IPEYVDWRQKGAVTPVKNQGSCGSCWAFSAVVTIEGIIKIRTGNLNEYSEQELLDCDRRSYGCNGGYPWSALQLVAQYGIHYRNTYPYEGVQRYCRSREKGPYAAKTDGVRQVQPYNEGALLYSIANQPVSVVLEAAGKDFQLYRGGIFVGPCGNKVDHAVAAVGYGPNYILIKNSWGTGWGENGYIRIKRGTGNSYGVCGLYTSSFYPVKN

[18] = biological target: thermolysin (Bacillus thermoproteolyticus, UniProt P00800); experiment: thermolysin inhibition assay; format: biochemical
Chain of thermolysin (P00800 233-548, species assumed): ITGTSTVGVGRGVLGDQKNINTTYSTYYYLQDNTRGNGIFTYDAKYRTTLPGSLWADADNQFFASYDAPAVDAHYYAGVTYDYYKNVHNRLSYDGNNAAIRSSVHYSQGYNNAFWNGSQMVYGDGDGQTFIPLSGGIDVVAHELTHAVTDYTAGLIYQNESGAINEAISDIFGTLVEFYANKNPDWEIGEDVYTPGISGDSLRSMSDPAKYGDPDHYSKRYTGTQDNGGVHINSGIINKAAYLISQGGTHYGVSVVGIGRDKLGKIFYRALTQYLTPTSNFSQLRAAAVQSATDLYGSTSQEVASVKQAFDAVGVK

[19] = biological target: T8, leucine aminopeptidase M (Sus scrofa, UniProt P15145); experiment: leucine aminopeptidase M inhibition assay; format: biochemical
T8 construct: purchased Sigma
T8 sequence (P15145 whole entry): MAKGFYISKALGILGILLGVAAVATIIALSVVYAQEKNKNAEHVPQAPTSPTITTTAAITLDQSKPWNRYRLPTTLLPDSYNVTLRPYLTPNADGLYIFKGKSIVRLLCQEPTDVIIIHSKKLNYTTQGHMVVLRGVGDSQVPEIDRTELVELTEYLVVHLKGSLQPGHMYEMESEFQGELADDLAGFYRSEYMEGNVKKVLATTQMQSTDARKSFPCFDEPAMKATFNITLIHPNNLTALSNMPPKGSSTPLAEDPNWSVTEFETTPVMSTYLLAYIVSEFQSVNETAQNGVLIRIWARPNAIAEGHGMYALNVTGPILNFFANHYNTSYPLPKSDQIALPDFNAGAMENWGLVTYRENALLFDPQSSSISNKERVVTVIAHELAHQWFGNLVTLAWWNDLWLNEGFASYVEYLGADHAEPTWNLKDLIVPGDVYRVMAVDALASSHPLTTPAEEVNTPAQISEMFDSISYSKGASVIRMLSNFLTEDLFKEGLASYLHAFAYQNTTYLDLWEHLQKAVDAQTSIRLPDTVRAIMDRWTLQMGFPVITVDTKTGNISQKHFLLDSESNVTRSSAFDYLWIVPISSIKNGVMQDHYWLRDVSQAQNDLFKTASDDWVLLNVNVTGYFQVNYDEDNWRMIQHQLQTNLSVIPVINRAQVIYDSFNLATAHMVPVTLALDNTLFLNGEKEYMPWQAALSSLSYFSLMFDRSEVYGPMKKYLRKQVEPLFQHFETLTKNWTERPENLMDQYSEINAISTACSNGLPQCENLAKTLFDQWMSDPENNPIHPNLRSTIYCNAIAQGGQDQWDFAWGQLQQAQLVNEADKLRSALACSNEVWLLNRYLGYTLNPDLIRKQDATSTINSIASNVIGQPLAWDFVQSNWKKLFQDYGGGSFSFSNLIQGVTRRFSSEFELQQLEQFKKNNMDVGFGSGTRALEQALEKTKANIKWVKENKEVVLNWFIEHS

[20] = substrate hydrolysis, pH 8.4 Tris buffer, 37°C

Activity compared to the control [1]: 1.38
Km [2, 20]: 3 µM
kcat [2, 20]: 50 s⁻¹
Activity compared to the control ([2]; thrombin, relative to (D)FPR-PNA control): 0.76
SMILES: N=C(N)NCCC[C@H](NC(=O)[C@@H]1CCN2CC[C@@](N)(Cc3ccccc3)C(=O)N12)C(=O)Nc1ccc([N+](=O)[O-])cc1 [(11b)]

IC50 [4]: 385 ± 17 nM
SMILES: N=C(N)NCCC[C@H](NC(=O)[C@@H]1CCN2CC[C@@](N)(Cc3ccccc3)C(=O)N12)C(=O)CCl [(13b)]
PT ([3]; Concentration 1 pM): 13 s
PT ([3]; Concentration 10 pM): 17 s
PT ([3]; Concentration 50 pM): 18 s
PT ([3]; Concentration 100 pM): 23 s
PT ([3]; Concentration 200 pM): 24 s
PT ([3]; Concentration 500 pM): 27 s
PT ([3]; Concentration 1 nM): 30 s
PT ([3]; Concentration 10 nM): 31 s
PT ([3]; Concentration 30 nM): 31 s
PT ([3]; Concentration 50 nM): 30 s
PT ([3]; Concentration 80 nM): 33 s

Selectivity ([5]; Tryptase, ratio of Ki of an enzyme to the Ki of thrombin): 106
Ki ([5]; tryptase, read-out: Ki): 9e-09 M
Selectivity [6]: 227
SMILES: N=C(N)NCCCC(NC(=O)C1CCC2CCC(N)(Cc3ccccc3)C(=O)N21)C(=O)c1nc2ccccc2s1 (stereo not drawn) [(29b)]

SMILES: N=C(N)NCCC[C@H](NC(=O)[C@@H]1CCCN1C(=O)[C@H](N)Cc1ccccc1)C(=O)CCl [PPACK, (D)FPR-CH2Cl, reference compound]
PT ([3]; Concentration 500 pM): 15 s
PT ([3]; Concentration 1 nM): 18 s
PT ([3]; Concentration 10 nM): 22 s
PT ([3]; Concentration 20 nM): 25 s
PT ([3]; Concentration 40 nM): 28 s
PT ([3]; Concentration 60 nM): 30 s
PT ([3]; Concentration 80 nM): 31 s

SMILES: CC1=C2[C@H]3OC(=O)[C@@H](C)[C@@H]3CC[C@@]2(C)C=CC1=O [Santonin]
thioredoxin-induced turbidity of insulin [7]: did not block thioredoxin-induced turbidity of insulin

Ki ([5]; read-out: Ki (M) Tryptase): 9e-09 M
SMILES: N=C(N)NCCCC(NC(=O)C1CCC2CCC(N)(Cc3ccccc3)C(=O)N21)C(=O)c1nc2ccccc2s1 (stereo not drawn) [Structure (29b)]

Ki [8]: 16.4 nM
Ki [9]: 0.027 nM
Ki [10]: 345 nM
SMILES: N=C(N)NCCC[C@H](NC(=O)[C@@H]1CCN2CC[C@@](N)(Cc3ccccc3)C(=O)N12)C(=O)C(=O)NCCc1ccccc1 [Structure (35)]

Ki [11]: 0.0732 nM
Ki [9]: 0.0773 nM
SMILES: N=C(N)NCCC[C@H](NC(=O)[C@@H]1CCN2CC[C@@](N)(Cc3ccccc3)C(=O)N12)C(=O)C(=O)NCc1ccccc1 [Structure (37)]

Ki [11]: 0.31 nM
SMILES: N=C(N)NCCC[C@H](NC(=O)[C@@H]1CCN2CC[C@@](N)(Cc3ccccc3)C(=O)N12)C(=O)C(=O)NCCc1ccc(Cl)cc1 [Structure (39)]

Ki [11]: 0.45 nM
SMILES: COc1ccc(CCNC(=O)C(=O)[C@H](CCCNC(=N)N)NC(=O)[C@@H]2CCN3CC[C@@](N)(Cc4ccccc4)C(=O)N23)cc1 [Structure (41)]

Ki [12]: 1240 nM
Ki [13]: 6.9e-09 M
Ki [11]: 5.4 nM
Ki [8]: 29600 nM
Ki ([5]; read-out: Ki (M) Tryptase): 1.65e-06 M
Ki [14]: 25600 nM
Ki [9]: 52.4 nM
Ki [15]: 17200 nM
Ki [16]: 23800 nM
SMILES: COC(=O)c1c[nH]c(C(=O)[C@H](CCCNC(=N)N)NC(=O)[C@@H]2CCN3CC[C@@](N)(Cc4ccccc4)C(=O)N23)n1 [Structure (45)]

Ki [8]: 968 nM
Ki [9]: 1.9 nM
Ki [10]: 1500 nM
SMILES: N=C(N)NCCC[C@H](NC(=O)[C@@H]1CCN2CC[C@@](N)(Cc3ccccc3)C(=O)N12)C(=O)c1nccs1 [Structure (47)]

Ki [12]: 1730 nM
Ki [11]: 7.25 nM
Ki [8]: 4260 nM
Ki [9]: 37.9 nM
SMILES: N=C(N)NC(=O)NC[C@H](NC(=O)[C@@H]1CCN2CC[C@@](N)(Cc3ccccc3)C(=O)N12)C(=O)c1nc2ccccc2s1 [Structure (51)]

SMILES: COC(=O)c1cccc2c1C(=O)N([C@@H](CC(C)C)C(=O)NO)C2=O [Structure (234)]
IC50 [17]: 8000 nM
Ki [18]: 6000 nM
Ki [19]: 11000 nM
